Data as given in patent US8735437B2, “Imidazolidine carboxamide derivatives as lipase and phospholipase inhibitors” (Sanofi, priority 2007, dated 2014).

Molecular target: T1, endothelial lipase (EL) (Homo sapiens, UniProt Q9Y5X9)
T1 construct: made in house; host or cells: recombinant cell lines (CHO, HEK293); concentrated conditioned medium used as enzyme solution
T1 sequence (Q9Y5X9 21-500): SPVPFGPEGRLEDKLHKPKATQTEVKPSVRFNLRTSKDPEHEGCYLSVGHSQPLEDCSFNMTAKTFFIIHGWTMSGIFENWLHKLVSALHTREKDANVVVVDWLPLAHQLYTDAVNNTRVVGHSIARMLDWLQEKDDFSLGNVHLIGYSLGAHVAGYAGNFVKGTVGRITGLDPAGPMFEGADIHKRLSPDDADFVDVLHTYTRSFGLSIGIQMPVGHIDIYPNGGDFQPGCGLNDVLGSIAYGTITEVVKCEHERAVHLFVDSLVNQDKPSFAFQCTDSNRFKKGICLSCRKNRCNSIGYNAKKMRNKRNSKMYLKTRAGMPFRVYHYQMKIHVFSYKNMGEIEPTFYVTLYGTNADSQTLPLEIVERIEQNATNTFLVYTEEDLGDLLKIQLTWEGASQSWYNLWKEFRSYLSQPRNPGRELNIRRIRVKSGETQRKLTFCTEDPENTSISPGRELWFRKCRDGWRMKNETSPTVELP
Assay: EL inhibition assay (EL activity assay, fluorescent Bodipy-labelled phospholipid substrate)
Assay type: biochemical
Conditions: enzyme solution = conditioned medium of recombinant cell lines (CHO, HEK293); 37° C., 90 minutes; pH=7.4
Description: EL is released as secretory protein in high concentration into cell culture medium (conditioned medium) by recombinant cell lines (CHO, HEK293). This is employed as enzyme solution after concentration.
The phospholipase-specific substrate 1,2-bis(4,4-difluoro-5,7-dimethyl-4-bora-3a,4a-diaza-s-indacene-3-undecanoyl)-sn-glycero-3-phosphocholine, (manufacturer Molecular Probes) is used to characterize the enzymatic activity of endothelial lipase and the effect of inhibitors. Hydrolysis of the A1 ester linkage of this phospholipid by the enzyme liberates a fatty acid labeled with the fluorescent dye Bodipy which can be detected after separation by thin-layer chromatography on an HPTLC plate (silica gel 60, Merck) or directly in the reaction vessel by measuring the fluorescence. The substrate solution is prepared by dissolving 100 μg of 1,2-bis(4,4-difluoro-5,7-dimethyl-4-bora-3a,4a-diaza-s-indacene-3-undecanoyl)-sn-glycero-3-phospho-choline (manufacturer Molecular Probes) in 100 μl of DMSO and taking it up in 2.4 mg of tripalmitin (Sigma) in 393 μl of chloroform which contains 20 mg/ml of DOP-choline (1,2-dioleoyl-sn-glycero-3-phosphocholine). 39.3 μl of this lipid mixture are transferred into a fresh reaction vessel. After evaporation of the solvent, the lipid mixture is dissolved in 4 ml of 200 mM TRIS-HCl, 150 mM sodium chloride, pH=7.4, by sonication twice. The subsequent enzymic reaction takes place at 37° C. for 90 minutes. For this purpose, 20 μl of the substrate solution are incubated with 2 μl of inhibitor of appropriate concentration (dissolved in 10% DMSO, 10% strength DMSO solution is used as control) and 2 μl of enzyme solution (conditioned medium). Then 4 μl of the assay mixture are loaded onto an HPTLC plate (silica gel 60, Merck), and the liberated fluorescent dye is separated for detection with an eluent (diethyl ether:petroleum benzine:acetic acid [78:22:1]). After evaporation of the eluent, the plate is read in a fluorescence scanner. An increased release of the fluorescent dye in the uninhibited reaction is to be observed as a measure of the enzymic activity.
The enzymatic activity is reduced as a function of the inhibitor concentration used, and the inhibitor concentration at which a half-maximum enzymic activity is observed is called IC50.

SMILES	IC50 [µM]
CCCCCCNC(=O)N1C(=O)CN(Cc2ccccc2)C1=O [Example 1, 3-Benzyl-2,5-dioxoimidazolidine-1-hexylcarboxamide]	0.005
Cc1ccccc1CNC(=O)N1C(=O)CN(Cc2ccccc2)C1=O [Example 2, 3-Benzyl-2,5-dioxoimidazolidine-1-(2-methylbenzyl)carboxamide]	0.147
CCCCCCCNC(=O)N1C(=O)CN(Cc2ccccc2)C1=O [Example 7, 3-Benzyl-2,5-dioxoimidazolidine-1-heptylcarboxamide]	0.083
CCCCCCNC(=O)N1C(=O)N(C)C(C)(C)C1=O [Example 9, 3,4,4-Trimethyl-2,5-dioxoimidazolidine-1-hexylcarboxamide]	0.037
CCCCCCNC(=O)N1C(=O)C2CCCCN2C1=O (centres unmarked) [Example 23, 1,3-Dioxohexahydroimidazo[1,5-a]pyridine-2-hexylcarboxamide]	0.044
CCCCCCNC(=O)N1C(=O)C2Cc3ccccc3CN2C1=O (centres unmarked) [Example 24, 1,3-Dioxo-1,5,10,10a-tetrahydroimidazo[1,5-b]isoquinoline-2-hexylcarboxamide]	0.039

Continued, values first:

IC50 [µM]	SMILES
0.145	O=C1CN(Cc2ccccc2)C(=O)N1C(=O)N[C@H]1CCc2ccccc21 [Example 3, 3-Benzyl-2,5-dioxoimidazolidine-1-((S)-indan-1-yl)carboxamide]
0.0005	O=C1CN(Cc2ccccc2)C(=O)N1C(=O)N[C@@H]1CCc2ccccc21 [Example 4, 3-Benzyl-2,5-dioxoimidazolidine-1-((R)-indan-1-yl)carboxamide]
0.008	O=C1CN(Cc2ccccc2)C(=O)N1C(=O)NC1CCCc2ccccc21 (centres unmarked) [Example 5, 3-Benzyl-2,5-dioxoimidazolidine-1-(1,2,3,4-tetrahydronaphthalen-1-yl)carboxamide]
0.143	O=C1CN(Cc2ccccc2)C(=O)N1C(=O)NCCc1cccs1 [Example 6, 3-Benzyl-2,5-dioxoimidazolidine-1-(2-thiophen-2-ylethyl)carboxamide]
0.047	CCCCCCNC(=O)N1C(=O)CN(C)C1=O [Example 8, 3-Methyl-2,5-dioxoimidazolidine-1-hexyl carboxamide]
0.059	CCCCCCCNC(=O)N1C(=O)CN(CCCC)C1=O [Example 21, 3-Butyl-2,5-dioxoimidazolidine-1-heptylcarboxamide]
0.059	O=C(NC1CCCc2ccccc21)N1C(=O)C2Cc3ccccc3CN2C1=O (centres unmarked) [Example 28, 1,3-Dioxo-1,5,10,10a-tetrahydroimidazo[1,5-b]isoquinoline-2-(1,2,3,4-tetra-hydronaphthalen-1-yl)carboxamide]
0.143	Cc1ccccc1CNC(=O)N1C(=O)C2Cc3ccccc3CN2C1=O (centres unmarked) [Example 29, 1,3-Dioxo-1,5,10,10a-tetrahydroimidazo[1,5-b]isoquinoline-2-methylbenzyl-2-carboxamide]
